Measured values published in patent publication US7183288B2, “Amide derivatives as glycogen synthase kinase 3-β inhibitors” (priority 2001, dated 2007).

Columns and labels:
GSK3β = GSK3β (Homo sapiens, UniProt P49841); experiment: GSK3beta assay (SPA, biotinylated phosphorylated CREB peptide, ATP-P33); format: biochemical; conditions: -log IC50 (M); 19 nM GSK3β, 5 μM biotinylated phosphorylated CREB peptide, 1 μM ATP, 25° C., one hour
Procedure: GSK3beta assays were performed at 25° C. in a 100 μl reaction volume of 25 mM Tris (pH 7.4) containing 10 mM MgCl2, 1 mM DTT, 0.1 mg/ml BSA, 5% glycerol and containing 19 nM GSK3β, 5 μM biotinylated phosphorylated CREB peptide, 1 μM ATP, 2 nM ATP-P^33 and a suitable amount of a test compound of formula (I) or (I′). After one hour, the reaction was terminated by adding 70 μl of Stop mix (1 mM ATP, 18 mg/ml streptavidin coated PVT SPA bead pH 11.0). The beads to which the phosphorylated CREB peptide is attached were allowed to settle for 30 minutes and the radioactivity of the beads was counted in a microtiterplate scintillation counter and compared with the results obtained in a control experiment (without the presence of a test compound) in order to determine the percentage of GSK3β inhibition. The IC50 value, i.e. the concentration (M) of the test compound at which 50% of GSK3β is inhibited, was calculated from the dose response curve obtained by performing the above-described GSK3β assay in the presence of different amounts of the test compound.

Chain of GSK3β (P49841 whole entry, species assumed): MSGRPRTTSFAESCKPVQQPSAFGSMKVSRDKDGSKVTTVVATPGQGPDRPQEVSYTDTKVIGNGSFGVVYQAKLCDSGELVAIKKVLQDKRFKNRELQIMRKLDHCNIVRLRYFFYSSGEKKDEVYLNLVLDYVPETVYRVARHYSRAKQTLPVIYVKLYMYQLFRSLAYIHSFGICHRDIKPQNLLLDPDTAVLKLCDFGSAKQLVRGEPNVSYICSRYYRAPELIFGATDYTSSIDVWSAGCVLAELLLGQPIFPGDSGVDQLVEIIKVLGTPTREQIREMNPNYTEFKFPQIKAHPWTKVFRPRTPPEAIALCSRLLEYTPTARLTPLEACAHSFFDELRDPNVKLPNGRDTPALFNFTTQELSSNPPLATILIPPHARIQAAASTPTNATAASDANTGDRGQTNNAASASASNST

SMILES | IC50 (GSK3β) [M] | melting point [°C]
N#Cc1ccc(Nc2nccc(C(N)=O)n2)cc1OCc1cccc(C(F)(F)F)c1 [Compound 36] | 4.07e-07 | –
N#Cc1ccc(Nc2nccc(C(N)=O)n2)cc1OCc1ccc2ccccc2c1 [Compound 38, 2-[[4-cyano-3-(2-naphthalenylmethoxy)phenyl]amino]-4-pyrimidinecarboxamide] | 5.5e-08 | –
Cc1ccc(COc2cc(Nc3nccc(C(N)=O)n3)ccc2C#N)cc1 [Compound 35] | 1.55e-07 | –
N#Cc1ccc(Nc2nccc(C(N)=O)n2)cc1OCCCc1ccccc1 [Compound 18] | 5.75e-08 | –
N#Cc1ccc(Nc2nccc(C(N)=O)n2)cc1OCc1ccc2ccccc2n1 [Compound 21] | 2.51e-08 | –
COc1ccc(COc2cc(Nc3nccc(C(N)=O)n3)ccc2C#N)cc1 [Compound 13, 2-[[4-cyano-3-[(4-methoxyphenyl)methoxy]phenyl]amino]-4-pyrimidinecarboxamide] | 5.25e-08 | –
NC(=O)c1ccnc(Nc2cccc(OCc3ccccc3)c2)n1 [Compound 25] | 9.12e-08 | –
N#Cc1ccc(Nc2nccc(C(N)=O)n2)cc1OCCOc1ccc(F)cc1F [Compound 17] | 2.45e-07 | –
N#Cc1ccc(COc2cc(Nc3nccc(C(N)=O)n3)ccc2C#N)cc1 [Compound 31] | 9.55e-08 | –
N#Cc1ccc(Nc2nccc(C(N)=O)n2)cc1OCc1ccccc1 [Compound 2, 2-[[4-cyano-3-(phenylmethoxy)phenyl]amino]-4-pyrimidinecarboxamide] | 5.01e-08 | –
N#Cc1ccc(Nc2nccc(C(N)=O)n2)cc1OCc1cccc2ccccc12 [Compound 23] | 8.13e-08 | –
CN(C)CCOc1cc(Nc2nccc(C(N)=O)n2)ccc1C#N [Compound 12] | 8.91e-07 | –
N#Cc1ccc(Nc2nccc(C(N)=O)n2)cc1OCc1nc2ccccc2s1 [Compound 19] | 4.57e-07 | –
Cc1cc(C)cc(COc2cc(Nc3nccc(C(N)=O)n3)ccc2C#N)c1 [Compound 10] | 1.1e-07 | –
N#Cc1ccc(Nc2nccc(C(N)=O)n2)cc1OCCC1COc2ccccc2O1 (centres unmarked) [Compound 14] | 1.38e-07 | –
N#Cc1ccc(Nc2nccc(C(N)=O)n2)cc1OCCN1CCOCC1 [Compound 11] | 2.63e-07 | –
CN(C)S(=O)(=O)Nc1cccc(COc2cc(Nc3nccc(C(N)=O)n3)ccc2C#N)c1 [Compound 8] | 2.09e-08 | –
CCc1noc(COc2cc(Nc3nccc(C(N)=O)n3)ccc2C#N)n1 [Compound 26] | 4.37e-07 | –
N#Cc1ccc(Nc2nccc(C(N)=O)n2)cc1OCc1cc(C(F)(F)F)cc(C(F)(F)F)c1 [Compound 9] | 3.8e-07 | –
CC(COc1cc(Nc2nccc(C(N)=O)n2)ccc1C#N)Oc1ccc(F)cc1 (centres unmarked) [Compound 16, 2-[[4-cyano-3-[2-(4-fluorophenoxy)propoxy]phenyl]amino]-4-pyrimidinecarboxamide] | 3.89e-08 | –
N#Cc1ccc(Nc2nccc(C(N)=O)n2)cc1O/C=C/c1ccccc1 [Compound 15] | 1.32e-07 | –
N#Cc1ccc(Nc2nccc(C(N)=O)n2)cc1OCC1CC(c2cccnc2)=NO1 (centres unmarked) [Compound 22] | 2.34e-07 | –
COc1ccccc1COc1cc(Nc2nccc(C(N)=O)n2)ccc1C#N [Compound 30, 2-[[4-cyano-3-[(2-methoxyphenyl)methoxy]phenyl]amino]-4-pyrimidinecarboxamide] | 4.68e-08 | –
CNC(=O)c1ccnc(Nc2ccc(C#N)c(OCc3ccccc3)c2)n1 [Compound 3] | 5.5e-08 | –
N#Cc1ccc(Nc2nccc(C(N)=O)n2)cc1 [Compound 29] | 1.48e-07 | –
N#Cc1ccc(Nc2ncccc2C(N)=O)cc1OCc1ccccc1 [Compound 1, 2-(3-benzyloxy-4-cyano-phenylamino)-nicotinamide] | – | 232
Cc1cccc(COc2cc(Nc3nccc(C(N)=O)n3)ccc2C#N)c1 [Compound 32] | 6.46e-08 | –
Cc1ccccc1COc1cc(Nc2nccc(C(N)=O)n2)ccc1C#N [Compound 34] | 1.78e-07 | –
CCn1ccnc1COc1cc(Nc2nccc(C(N)=O)n2)ccc1C#N [Compound 24] | 4.79e-08 | –
